Here are results for 17 molecules from patent US20030013744A1, “3,4-diaryl thiophenes and analogs thereof having use as anti-inflammatory agents” (G.D. Searle & Co., priority 1993, published 2003).

Read-outs that look alike come from different tables or passages of the source.

The target in one data set is T1, COX II enzyme (Mus musculus, UniProt Q05769).
T1 sequence (Q05769 18-604): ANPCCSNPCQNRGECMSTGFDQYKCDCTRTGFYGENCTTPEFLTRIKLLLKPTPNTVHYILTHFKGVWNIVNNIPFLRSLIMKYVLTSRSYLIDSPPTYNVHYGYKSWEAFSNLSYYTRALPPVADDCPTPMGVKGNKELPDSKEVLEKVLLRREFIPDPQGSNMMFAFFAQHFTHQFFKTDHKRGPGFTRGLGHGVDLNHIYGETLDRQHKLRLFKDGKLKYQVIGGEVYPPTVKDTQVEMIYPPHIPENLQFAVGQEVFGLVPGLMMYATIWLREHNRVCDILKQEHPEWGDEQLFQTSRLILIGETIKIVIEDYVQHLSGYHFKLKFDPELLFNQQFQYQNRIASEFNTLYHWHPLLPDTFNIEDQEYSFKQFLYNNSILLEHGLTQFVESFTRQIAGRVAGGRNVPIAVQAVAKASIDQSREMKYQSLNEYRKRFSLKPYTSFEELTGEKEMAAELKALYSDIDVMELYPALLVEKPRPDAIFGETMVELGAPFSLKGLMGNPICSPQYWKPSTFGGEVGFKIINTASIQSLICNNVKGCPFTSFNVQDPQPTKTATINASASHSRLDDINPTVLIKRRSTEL
The following applies: J. Biol. Chem., 268, 6610 (1993); cited from earlier work.

Data set [1] in a line: Whole Blood Assay for Thromboxane B2 Activity. The format is cell-based. The settings on record: calcium ionophore A23187. Here is the method: Whole Blood Assay for Thromboxane B2 Activity:
Thromboxane B2 (TXB2) activity was assayed using an ELISA to detect the TXB2 released. Various concentrations of compounds and standards were prepared by a set of serial dilutions (1:3) in a microtiter plate with ethanol. In U-bottom microtiter plates, 50 μl whole blood (green top heparin), 150 μl RPMI media (JRH Biosciences) and 5 μl compound solution were mixed and preincubated at 37° C. for fifteen minutes prior to the addition 4 μg of the calcium ionophore A23187. Any reaction between the compounds and the cells was stopped after ten minutes at 37° C. by centrifuging the cells at 2000 rpm for ten minutes at 4° C. and transferring 20 μl of the supernatant into 180 μl ELISA enzyme immuno assay buffer. The TXB2 formed was measured by standard ELISA technology (Cayman Chemical). To washed and pre-coated (goat anti-rabbit IgG H&L) microtiter plates, was added 40 μl enzyme immuno assay buffer, 10 μl diluted supernatants, 50 μl […] and 50 μl TXB2 antisera. After covered overnight incubation at room temperature. 200 μl Ellman reagent was added and incubated. The absorbance was read at 405 nm with a 650 nm reference.

Another data set has as its target T2, human COX II (Homo sapiens, UniProt P35354).
T2 construct: A 2.0 kb fragment containing the coding region; made in house; host or cells: SF9 insect cells (baculovirus, transfer vector pVL1393)
T2 sequence (P35354 18-604): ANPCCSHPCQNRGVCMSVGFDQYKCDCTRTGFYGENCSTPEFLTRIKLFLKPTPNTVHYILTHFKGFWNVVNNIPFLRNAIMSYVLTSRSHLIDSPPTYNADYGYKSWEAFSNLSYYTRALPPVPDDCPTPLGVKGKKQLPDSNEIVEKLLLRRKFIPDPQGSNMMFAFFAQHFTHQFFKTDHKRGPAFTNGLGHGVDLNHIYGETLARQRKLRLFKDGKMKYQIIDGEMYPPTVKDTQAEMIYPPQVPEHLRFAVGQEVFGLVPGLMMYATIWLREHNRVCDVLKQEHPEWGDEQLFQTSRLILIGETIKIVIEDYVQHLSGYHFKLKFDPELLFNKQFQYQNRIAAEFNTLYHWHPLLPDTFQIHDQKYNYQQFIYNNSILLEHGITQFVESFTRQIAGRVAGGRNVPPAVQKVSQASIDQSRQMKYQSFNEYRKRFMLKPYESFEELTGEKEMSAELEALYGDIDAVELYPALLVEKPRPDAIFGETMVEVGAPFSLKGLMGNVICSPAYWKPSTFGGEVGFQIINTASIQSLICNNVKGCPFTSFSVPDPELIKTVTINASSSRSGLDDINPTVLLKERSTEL
Description: Assay for COX II activity in vitro (PGE2 ELISA, recombinant enzyme). The format is biochemical. In general terms: An ELISA detects its analyte on a solid surface through an enzyme-linked reagent.

The next data set has as its target T3, human COX I (Homo sapiens, UniProt P23219).
T3 construct: A 2.0 kb fragment containing the coding region; made in house; host or cells: SF9 insect cells (baculovirus, transfer vector pVL1393)
Description: Assay for COX I activity in vitro (PGE2 ELISA, recombinant enzyme). In kind it is biochemical.

Another data set addresses T4, Murine COX I (Mus musculus, UniProt P22437).
T4 construct: A 2.0 kb fragment containing the coding region; made in house; host or cells: SF9 insect cells (baculovirus, transfer vector pVL1393)
T4 sequence (P22437 27-602): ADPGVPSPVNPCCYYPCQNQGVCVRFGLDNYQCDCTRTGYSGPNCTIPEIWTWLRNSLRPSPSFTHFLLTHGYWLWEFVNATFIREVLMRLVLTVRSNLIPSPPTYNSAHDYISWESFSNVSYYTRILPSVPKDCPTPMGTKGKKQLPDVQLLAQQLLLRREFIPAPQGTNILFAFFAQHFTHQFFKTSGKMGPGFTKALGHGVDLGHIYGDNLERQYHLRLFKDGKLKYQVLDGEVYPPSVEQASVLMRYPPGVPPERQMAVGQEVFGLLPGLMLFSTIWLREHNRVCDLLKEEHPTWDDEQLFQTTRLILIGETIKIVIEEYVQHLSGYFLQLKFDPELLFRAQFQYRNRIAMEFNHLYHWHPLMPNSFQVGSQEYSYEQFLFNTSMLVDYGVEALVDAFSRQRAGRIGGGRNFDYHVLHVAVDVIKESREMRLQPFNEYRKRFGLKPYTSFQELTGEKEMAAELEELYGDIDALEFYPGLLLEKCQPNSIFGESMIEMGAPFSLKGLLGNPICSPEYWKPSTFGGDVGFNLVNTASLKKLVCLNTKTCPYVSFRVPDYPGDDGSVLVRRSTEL
Described as above. The format is biochemical. The following applies: read-out: Murine COX I ID50.

The next data set concerns the target T5, Murine COX II (Mus musculus, UniProt Q05769).
T5 construct: A 2.0 kb fragment containing the coding region; made in house; host or cells: SF9 insect cells (baculovirus, transfer vector pVL1393)
T5 sequence (Q05769 18-604): T1 sequence (Q05769 18-604)
Description: Assay for COX II activity in vitro (PGE2 ELISA, recombinant enzyme). In kind it is biochemical. The following applies: read-out: Murine COX II ID50.

For data set [2] the following is noted: Gen. Pharmac., 24, 105 (1993); cited from earlier work.
For data set [3] the following is noted: Gen. Pharmac., 24, 105 (1993); cited from earlier work. The source holds these as a separate data set.

T3 sequence (P23219 24-599): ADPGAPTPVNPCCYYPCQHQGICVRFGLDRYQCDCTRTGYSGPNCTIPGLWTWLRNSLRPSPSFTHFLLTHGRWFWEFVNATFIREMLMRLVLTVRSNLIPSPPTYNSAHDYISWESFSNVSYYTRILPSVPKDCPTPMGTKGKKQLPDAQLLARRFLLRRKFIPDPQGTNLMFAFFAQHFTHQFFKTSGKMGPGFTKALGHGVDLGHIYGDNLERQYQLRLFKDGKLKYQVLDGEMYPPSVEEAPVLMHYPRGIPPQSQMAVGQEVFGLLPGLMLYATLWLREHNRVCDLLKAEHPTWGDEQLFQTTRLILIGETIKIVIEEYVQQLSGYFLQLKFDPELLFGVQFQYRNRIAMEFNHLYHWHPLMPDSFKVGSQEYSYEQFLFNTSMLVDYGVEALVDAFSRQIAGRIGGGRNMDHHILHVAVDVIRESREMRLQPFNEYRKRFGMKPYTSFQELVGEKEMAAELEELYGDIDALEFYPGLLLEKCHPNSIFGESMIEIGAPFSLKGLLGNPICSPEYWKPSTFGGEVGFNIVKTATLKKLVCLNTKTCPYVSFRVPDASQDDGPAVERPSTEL

As for `COc1ccc2cc(CC(=O)O)ccc2c1` [6-methoxy-2-napthylacetic acid], the “selective inhibition of the COX II enzyme” value at COX II enzyme is “selectively inhibit the COX II enzyme”.
In the case of `CS(=O)(=O)c1ccc(-c2cscc2-c2ccc(F)cc2)cc1` [Example 1, 3-(4-Methylsulfonylphenyl)-4-(4-fluorophenyl)thiophene], the IC50 in [1] was 21 µM; on human COX II it was below 0.1 µM; on human COX I, above 100 µM.
Regarding `CS(=O)(=O)c1ccc(-c2csc(Br)c2-c2ccc(F)cc2)cc1` [Example 2, 4(4-Methylsulfonylphenyl)-3-(4-fluorophenyl)-2-bromothiophene], the values for the IC50 (in data set [1]; on Murine COX I) were 0.4 µM and 3.5 µM, respectively.
For `CS(=O)(=O)c1ccc(-c2c(Br)sc(Br)c2-c2ccc(F)cc2)cc1` [Example 3, 4-(4-Methylsulfonylphenyl)-3-(4-fluorophenyl)-2,5-dibromothiophene], the IC50 on Murine COX II came to 1.5 µM.
As to `COc1ccc(-c2cscc2-c2ccc(OC)cc2)cc1` [Example 4, 3,4-Bis(4-methoxyphenyl)thiophene], the IC50 in [1] is below 0.1 µM; on Murine COX II, 0.8 µM; on Murine COX I it was 0.3 µM.
`CCOC(=O)c1scc(-c2ccc(S(C)(=O)=O)cc2)c1-c1ccc(F)cc1` [Example 5, Ethyl[4-(4-methylsulfonylphenyl)-3-(4-fluorophenyl)thien-2-yl]carboxylate]: the IC50 at Murine COX II was below 0.1 µM; at Murine COX I it was above 3 µM.
Turning to `COc1ccc(-c2cscc2-c2ccc(S(C)(=O)=O)cc2)cc1` [Example 6, 3-(4-Methylsulfonylphenyl)-4-(4-methoxyphenyl)thiophene], the IC50 at Murine COX II was below 0.1 µM; at Murine COX I it was below 0.3 µM.
As for `COc1ccc(-c2c(-c3ccc(S(C)(=O)=O)cc3)csc2Br)cc1` [Example 7, 3-(4-Methylsulfonylphenyl)-4-(4-methoxyphenyl)-5-bromothiophene], the IC50 (in [1]; on Murine COX II; at Murine COX I) was below 0.1 µM throughout.
As for `CCOC(=O)c1sc(C(=O)O)c(-c2ccc(F)cc2)c1-c1ccc(S(C)(=O)=O)cc1` [Example 8, 2-Ethoxycarbonyl-4-(4-fluorophenyl)-3-(4-methanesulfonylphenyl)-thienyl-5-carboxylic acid], the IC50 is 5.5 µM on Murine COX II and above 100 µM at Murine COX I.
On the same counts, the results for `CS(=O)(=O)c1ccc(-c2c(C(=O)O)sc(C(=O)O)c2-c2ccc(F)cc2)cc1` [Example 9, 4-(4-Fluorophenyl)-3-(4-methanesulfonylphenyl)thienyl-2,5-dicarboxylic acid] are 4.7 µM and above 100 µM.
Turning to `CS(=O)(=O)c1ccc(-c2cscc2-c2ccccc2)cc1` [Example 10, 3-(4-Methanesulfonylphenyl)-4-phenyl-thiophene], the results for the IC50 (in data set [1]; on Murine COX II; on Murine COX I) were 7 µM, below 0.1 µM and above 10 µM, respectively.
Taken in the same sequence, the figures for `Cc1ccc(-c2cscc2-c2ccc(S(C)(=O)=O)cc2)cc1` [Example 11, 3-(4-Methanesulfonylphenyl)-4-(4-methylphenyl)thiophene] were 7 µM, below 0.1 µM and above 100 µM.
A word on the melting point: it is the temperature of the solid-liquid transition. In the case of `NS(=O)(=O)c1ccc(-c2cscc2-c2ccc(F)cc2)cc1` [Example 12, 4-[4-(4-Fluorophenyl)thien-3-yl]benzenesulfonamide], the melting point was in the range of 194 to 195 °C.
`CS(=O)(=O)c1ccc(-c2cocc2-c2ccc(F)cc2)cc1` [Example 13, 3-(4-Fluorophenyl)-4-(methylsulfonylphenyl)furan]: the melting point lay within 160 to 161 °C. Moreover, the IC50 on human COX II (human COX II enzyme (footnote *), read-out: COX II ID50) is 1.9 µM. Moreover, at human COX I (human COX I enzyme (footnote *), read-out: COX I ID50), the IC50 is above 100 µM.
For the molecule `CS(=O)(=O)c1ccc(-c2cscc2-c2ccc(F)nc2)cc1` [Example 14], the melting point is 190 to 191 °C (dec.). Also, the IC50 in data set [1] came out at 27 µM. Moreover, the IC50 on Murine COX II was 0.2 µM. Further, the IC50 on Murine COX I was above 10 µM.
Molecule `Cc1cc(F)ccc1-c1cscc1-c1ccc(S(C)(=O)=O)cc1` [Example 15, 3-(4-Methylsulfonylphenyl)-4-(2-methyl-4-fluorophenyl)thiophene] gave a melting point of 158 to 160 °C. For the same molecule, the IC50 in [1] turned out to be 28 µM. Also, the IC50 at Murine COX I was found to be 8.5 µM.
On to `CS(=O)(=O)Nc1ccc([N+](=O)[O-])cc1OC1CCCCC1` [N-(2-cyclohexyloxy-4-nitrophenyl)methanesulfonamide], for which, in [2], the antiinflammatory activity result is “antiinflammatory”. In addition, the gastric side effects entry in [3] was “lacks gastric side effects”.
